According to PMC9329436, “Optimization of the 4-anilinoquin(az)oline scaffold as epidermal growth factor receptor (EGFR) inhibitors for chordoma utilizing a toxicology profiling assay platform” (Scientific Reports, 2022):
Where two headings read alike, the source gives them in different places.

Key:
Type in all cases: biochemical
[1] = biological target: 320 wild-type protein kinases (Homo sapiens, UniProt P31749); conditions: singlicate
Source text: (§1) Table S4. Profiling of two compounds at two concentrations against 320 wild-type protein kinases; singlicate measurement; Residual activities (% of control).

[2] = biological target: T1, 320 wild-type protein kinases (Homo sapiens, UniProt O15111); conditions: IKK-alpha, singlicate
T1 sequence (O15111 1-745): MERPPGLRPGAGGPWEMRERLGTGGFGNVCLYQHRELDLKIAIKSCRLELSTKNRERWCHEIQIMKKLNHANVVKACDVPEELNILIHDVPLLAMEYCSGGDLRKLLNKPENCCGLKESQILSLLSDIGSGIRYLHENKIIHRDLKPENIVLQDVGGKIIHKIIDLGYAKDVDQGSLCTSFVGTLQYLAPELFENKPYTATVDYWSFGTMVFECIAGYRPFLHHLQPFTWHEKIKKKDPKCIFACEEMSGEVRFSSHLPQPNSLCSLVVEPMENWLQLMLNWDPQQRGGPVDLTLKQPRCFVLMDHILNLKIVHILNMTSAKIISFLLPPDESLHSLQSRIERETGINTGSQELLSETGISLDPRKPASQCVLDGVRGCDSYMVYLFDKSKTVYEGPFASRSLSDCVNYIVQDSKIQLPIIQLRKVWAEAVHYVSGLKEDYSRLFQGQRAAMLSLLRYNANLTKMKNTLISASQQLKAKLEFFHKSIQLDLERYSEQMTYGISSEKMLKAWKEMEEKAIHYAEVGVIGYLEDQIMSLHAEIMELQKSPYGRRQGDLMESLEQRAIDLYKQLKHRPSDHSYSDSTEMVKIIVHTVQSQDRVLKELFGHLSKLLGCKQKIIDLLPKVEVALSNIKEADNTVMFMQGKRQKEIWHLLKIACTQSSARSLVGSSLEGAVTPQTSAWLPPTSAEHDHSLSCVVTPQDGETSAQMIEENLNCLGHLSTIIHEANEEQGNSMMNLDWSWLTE
Source text: as §1

[3] = biological target: 320 wild-type protein kinases (Homo sapiens, UniProt Q16512); conditions: singlicate
Sequence of 320 wild-type protein kinases (Homo sapiens, UniProt Q16512) (Q16512 whole entry): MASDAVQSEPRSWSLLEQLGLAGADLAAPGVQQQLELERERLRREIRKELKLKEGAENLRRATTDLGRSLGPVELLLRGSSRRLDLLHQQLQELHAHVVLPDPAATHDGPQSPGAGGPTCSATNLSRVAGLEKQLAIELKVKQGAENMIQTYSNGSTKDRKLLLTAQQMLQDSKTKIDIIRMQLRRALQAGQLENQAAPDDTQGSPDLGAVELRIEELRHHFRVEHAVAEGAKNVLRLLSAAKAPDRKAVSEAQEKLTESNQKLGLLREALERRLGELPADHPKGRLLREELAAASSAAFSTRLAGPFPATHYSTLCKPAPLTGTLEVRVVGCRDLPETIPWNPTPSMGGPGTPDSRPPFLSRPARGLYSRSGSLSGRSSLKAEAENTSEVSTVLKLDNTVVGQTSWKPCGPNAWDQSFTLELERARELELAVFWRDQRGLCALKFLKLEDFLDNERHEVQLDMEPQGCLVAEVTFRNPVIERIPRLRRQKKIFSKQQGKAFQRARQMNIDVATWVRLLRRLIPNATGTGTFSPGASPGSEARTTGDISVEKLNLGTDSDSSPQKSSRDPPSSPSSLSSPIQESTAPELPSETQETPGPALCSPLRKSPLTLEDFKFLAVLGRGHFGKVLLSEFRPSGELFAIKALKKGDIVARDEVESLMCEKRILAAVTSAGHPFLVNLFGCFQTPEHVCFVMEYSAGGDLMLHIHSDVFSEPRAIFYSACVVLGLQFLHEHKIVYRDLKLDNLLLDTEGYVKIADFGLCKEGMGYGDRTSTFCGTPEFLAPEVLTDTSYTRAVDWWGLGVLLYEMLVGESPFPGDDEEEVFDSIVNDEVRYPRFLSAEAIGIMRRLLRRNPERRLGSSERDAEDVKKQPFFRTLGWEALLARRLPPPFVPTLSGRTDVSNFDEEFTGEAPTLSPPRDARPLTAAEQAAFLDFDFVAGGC
Source text: as §1

[4] = biological target: T2, 320 wild-type protein kinases (Homo sapiens, UniProt O00444); conditions: kinase SAK, singlicate
T2 sequence (O00444 1-970): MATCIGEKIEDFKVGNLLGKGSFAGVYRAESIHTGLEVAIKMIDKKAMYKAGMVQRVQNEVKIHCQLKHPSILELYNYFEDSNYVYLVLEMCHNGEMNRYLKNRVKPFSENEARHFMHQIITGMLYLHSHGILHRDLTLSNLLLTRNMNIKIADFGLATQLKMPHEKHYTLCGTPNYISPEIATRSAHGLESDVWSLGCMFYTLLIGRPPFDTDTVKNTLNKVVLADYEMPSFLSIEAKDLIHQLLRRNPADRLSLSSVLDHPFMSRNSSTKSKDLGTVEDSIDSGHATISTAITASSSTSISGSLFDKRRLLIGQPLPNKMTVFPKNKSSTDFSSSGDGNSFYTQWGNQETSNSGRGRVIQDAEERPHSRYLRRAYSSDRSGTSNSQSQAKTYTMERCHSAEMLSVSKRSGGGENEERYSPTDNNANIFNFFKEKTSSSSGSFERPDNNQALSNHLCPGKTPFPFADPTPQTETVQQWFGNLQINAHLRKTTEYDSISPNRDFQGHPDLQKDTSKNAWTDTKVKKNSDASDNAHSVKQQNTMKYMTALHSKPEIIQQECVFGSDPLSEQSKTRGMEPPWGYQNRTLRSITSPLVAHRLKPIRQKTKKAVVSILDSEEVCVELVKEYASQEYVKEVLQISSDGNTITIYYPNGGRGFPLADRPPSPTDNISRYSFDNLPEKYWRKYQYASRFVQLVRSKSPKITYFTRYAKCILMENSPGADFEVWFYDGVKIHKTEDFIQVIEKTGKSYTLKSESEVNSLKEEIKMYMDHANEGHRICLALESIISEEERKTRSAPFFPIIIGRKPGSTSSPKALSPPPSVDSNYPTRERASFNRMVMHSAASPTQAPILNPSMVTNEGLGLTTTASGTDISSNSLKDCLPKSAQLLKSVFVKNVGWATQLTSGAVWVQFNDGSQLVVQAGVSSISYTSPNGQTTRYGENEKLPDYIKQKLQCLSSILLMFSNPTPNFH
Source text: as §1

[5] = biological target: 320 wild-type protein kinases (Homo sapiens, UniProt P07333); conditions: CSF1-R, singlicate
Sequence of 320 wild-type protein kinases (Homo sapiens, UniProt P07333) (P07333 20-972): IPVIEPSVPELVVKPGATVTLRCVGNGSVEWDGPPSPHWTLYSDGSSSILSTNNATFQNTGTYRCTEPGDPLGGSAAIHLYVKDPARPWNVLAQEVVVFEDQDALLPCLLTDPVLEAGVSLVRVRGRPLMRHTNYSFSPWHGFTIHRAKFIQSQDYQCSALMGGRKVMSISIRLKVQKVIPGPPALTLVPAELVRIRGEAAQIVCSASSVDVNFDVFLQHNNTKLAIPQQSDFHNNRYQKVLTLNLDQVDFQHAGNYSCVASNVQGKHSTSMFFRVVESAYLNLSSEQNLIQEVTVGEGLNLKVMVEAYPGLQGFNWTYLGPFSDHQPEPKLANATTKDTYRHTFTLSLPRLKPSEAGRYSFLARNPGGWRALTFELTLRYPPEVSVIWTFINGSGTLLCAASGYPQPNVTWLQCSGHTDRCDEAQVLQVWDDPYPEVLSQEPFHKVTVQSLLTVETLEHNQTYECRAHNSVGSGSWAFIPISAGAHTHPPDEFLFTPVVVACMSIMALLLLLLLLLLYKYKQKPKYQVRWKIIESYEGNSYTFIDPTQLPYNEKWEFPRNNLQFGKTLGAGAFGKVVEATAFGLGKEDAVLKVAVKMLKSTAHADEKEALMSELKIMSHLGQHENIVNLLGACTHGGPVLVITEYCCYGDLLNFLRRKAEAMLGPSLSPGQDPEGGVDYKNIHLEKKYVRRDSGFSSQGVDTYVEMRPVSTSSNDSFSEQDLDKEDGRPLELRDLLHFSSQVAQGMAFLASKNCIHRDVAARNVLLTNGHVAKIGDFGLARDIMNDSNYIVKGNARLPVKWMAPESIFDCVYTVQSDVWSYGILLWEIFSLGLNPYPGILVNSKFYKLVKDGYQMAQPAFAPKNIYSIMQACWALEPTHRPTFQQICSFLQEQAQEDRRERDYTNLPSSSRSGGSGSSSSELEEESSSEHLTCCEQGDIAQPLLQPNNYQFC
Source text: as §1

[6] = biological target: 320 wild-type protein kinases (Homo sapiens, UniProt P16234); conditions: PDGFR-alpha, singlicate
Sequence of 320 wild-type protein kinases (Homo sapiens, UniProt P16234) (P16234 24-1089): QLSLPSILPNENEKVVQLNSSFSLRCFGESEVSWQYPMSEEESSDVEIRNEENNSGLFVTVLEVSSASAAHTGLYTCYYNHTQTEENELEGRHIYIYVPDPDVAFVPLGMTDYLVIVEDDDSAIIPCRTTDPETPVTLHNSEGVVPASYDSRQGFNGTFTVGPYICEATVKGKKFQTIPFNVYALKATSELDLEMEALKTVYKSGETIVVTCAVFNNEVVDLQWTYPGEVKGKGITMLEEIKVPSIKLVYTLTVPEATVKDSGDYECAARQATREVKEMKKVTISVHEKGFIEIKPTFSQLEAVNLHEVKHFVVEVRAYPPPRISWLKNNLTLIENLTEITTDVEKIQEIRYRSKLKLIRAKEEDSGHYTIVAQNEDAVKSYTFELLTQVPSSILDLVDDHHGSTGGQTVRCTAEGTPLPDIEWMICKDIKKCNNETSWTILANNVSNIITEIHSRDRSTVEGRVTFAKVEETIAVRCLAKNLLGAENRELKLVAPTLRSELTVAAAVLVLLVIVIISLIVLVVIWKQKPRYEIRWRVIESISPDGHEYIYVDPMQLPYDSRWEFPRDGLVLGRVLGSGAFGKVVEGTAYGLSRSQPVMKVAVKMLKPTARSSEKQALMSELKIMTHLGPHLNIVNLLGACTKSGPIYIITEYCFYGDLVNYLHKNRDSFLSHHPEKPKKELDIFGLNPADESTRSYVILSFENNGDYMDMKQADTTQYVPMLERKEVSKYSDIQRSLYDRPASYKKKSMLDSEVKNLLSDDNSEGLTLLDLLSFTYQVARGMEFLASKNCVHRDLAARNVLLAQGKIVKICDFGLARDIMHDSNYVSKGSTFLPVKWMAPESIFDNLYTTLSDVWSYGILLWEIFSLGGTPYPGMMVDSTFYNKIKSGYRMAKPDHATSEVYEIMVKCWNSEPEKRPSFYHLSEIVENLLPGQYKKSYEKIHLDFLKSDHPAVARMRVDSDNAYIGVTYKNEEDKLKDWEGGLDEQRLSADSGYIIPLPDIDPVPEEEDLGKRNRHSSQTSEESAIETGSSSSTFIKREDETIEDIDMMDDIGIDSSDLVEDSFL
Source text: as §1

[7] = biological target: T3, 320 wild-type protein kinases (Homo sapiens, UniProt Q9UBE8); conditions: NLK, singlicate
T3 sequence (Q9UBE8 1-527): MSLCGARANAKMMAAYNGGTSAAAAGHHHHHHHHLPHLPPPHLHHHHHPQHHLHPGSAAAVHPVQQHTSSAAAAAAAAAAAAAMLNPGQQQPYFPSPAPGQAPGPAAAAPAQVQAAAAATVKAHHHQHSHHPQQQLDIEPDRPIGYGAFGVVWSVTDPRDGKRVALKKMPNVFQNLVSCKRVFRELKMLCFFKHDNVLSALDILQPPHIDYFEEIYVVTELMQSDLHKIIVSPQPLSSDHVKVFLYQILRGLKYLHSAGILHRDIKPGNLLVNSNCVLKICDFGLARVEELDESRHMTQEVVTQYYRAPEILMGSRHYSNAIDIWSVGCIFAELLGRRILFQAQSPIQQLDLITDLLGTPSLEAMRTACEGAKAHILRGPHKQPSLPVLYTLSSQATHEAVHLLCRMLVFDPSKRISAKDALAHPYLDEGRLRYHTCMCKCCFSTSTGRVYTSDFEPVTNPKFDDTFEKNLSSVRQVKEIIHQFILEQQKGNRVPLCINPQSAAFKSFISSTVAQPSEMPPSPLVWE
Source text: as §1

[8] = biological target: 320 wild-type protein kinases (Homo sapiens, UniProt P37023); conditions: singlicate
Sequence of 320 wild-type protein kinases (Homo sapiens, UniProt P37023) (P37023 22-503): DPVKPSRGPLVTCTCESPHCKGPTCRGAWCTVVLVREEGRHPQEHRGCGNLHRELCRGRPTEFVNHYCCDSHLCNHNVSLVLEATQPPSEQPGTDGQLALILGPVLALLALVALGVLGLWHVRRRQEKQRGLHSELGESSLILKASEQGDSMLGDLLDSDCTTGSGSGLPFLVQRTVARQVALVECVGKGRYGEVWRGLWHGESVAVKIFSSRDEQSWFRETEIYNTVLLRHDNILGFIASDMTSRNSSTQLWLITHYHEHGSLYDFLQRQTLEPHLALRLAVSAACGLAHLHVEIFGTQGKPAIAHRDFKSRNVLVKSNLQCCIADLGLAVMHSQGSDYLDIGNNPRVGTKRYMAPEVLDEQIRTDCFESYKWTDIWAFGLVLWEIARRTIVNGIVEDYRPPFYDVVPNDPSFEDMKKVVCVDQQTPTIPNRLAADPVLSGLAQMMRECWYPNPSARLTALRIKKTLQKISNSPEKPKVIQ
Source text: as §1

Sequence of 320 wild-type protein kinases (Homo sapiens, UniProt P31749) (P31749 whole entry): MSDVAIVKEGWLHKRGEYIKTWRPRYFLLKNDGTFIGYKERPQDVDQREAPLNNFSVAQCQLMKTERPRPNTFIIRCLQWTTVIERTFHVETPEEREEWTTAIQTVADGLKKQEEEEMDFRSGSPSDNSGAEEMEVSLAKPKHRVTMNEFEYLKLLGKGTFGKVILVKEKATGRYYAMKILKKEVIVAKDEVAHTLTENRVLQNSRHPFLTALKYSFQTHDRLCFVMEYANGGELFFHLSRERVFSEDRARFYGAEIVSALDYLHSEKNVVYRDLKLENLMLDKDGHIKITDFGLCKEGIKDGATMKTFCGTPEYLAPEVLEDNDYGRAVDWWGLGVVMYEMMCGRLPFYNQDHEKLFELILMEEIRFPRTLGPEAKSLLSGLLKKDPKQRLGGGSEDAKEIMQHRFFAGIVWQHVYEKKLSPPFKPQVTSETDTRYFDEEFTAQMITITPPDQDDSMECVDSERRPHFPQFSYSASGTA

In the case of `C#Cc1cc(Nc2ncnc3cc(I)ccc23)ccc1Cl` [Compound 41], the Residual activity ([1]; AKT1 aa106-480, 1.0E-06 M) is reported as 94 % of control, the Residual activity ([1]; AKT1 aa106-480, 1.0E-07 M) is reported as 96 % of control and the Residual activity ([2]; 1.0E-06 M) is reported as 100 % of control. The Residual activity ([2]; 1.0E-07 M) was 109 % of control, the Residual activity ([3]; PRK1, 1.0E-06 M) was 96 % of control and the Residual activity ([3]; PRK1, 1.0E-07 M) was 96 % of control. The “Residual activity, SAK” value ([4]; assay conc. 1.0E-06 M) was 77 % of control, the “Residual activity, SAK” value ([4]; assay conc. 1.0E-07 M) was 95 % of control and the Residual activity ([5]; 1.0E-06 M) was 123 % of control. For the same compound, the Residual activity ([5]; 1.0E-07 M) was 130 % of control, the Residual activity ([6]; 1.0E-06 M) was 117 % of control and the Residual activity ([6]; 1.0E-07 M) was 118 % of control. The Residual activity ([7]; 1.0E-06 M) was 63 % of control, the Residual activity ([7]; 1.0E-07 M) was 76 % of control and the Residual activity ([8]; ACV-RL1, 1.0E-06 M) was 105 % of control. For the same compound, the Residual activity ([8]; ACV-RL1, 1.0E-07 M) was 102 % of control.
For `C#Cc1cc(Nc2ncnc3cc(OC)c(OC)cc23)ccc1Cl` [Compound 45], the Residual activity ([1]; AKT1 aa106-480, 1.0E-06 M) was 101 % of control, the Residual activity ([1]; AKT1 aa106-480, 1.0E-07 M) was 100 % of control and the Residual activity ([2]; 1.0E-06 M) was 95 % of control. The Residual activity ([2]; 1.0E-07 M) was 106 % of control, the Residual activity ([3]; PRK1, 1.0E-06 M) was 91 % of control and the Residual activity ([3]; PRK1, 1.0E-07 M) was 91 % of control. The “Residual activity, SAK” value ([4]; assay conc. 1.0E-06 M) was 82 % of control, the “Residual activity, SAK” value ([4]; assay conc. 1.0E-07 M) was 99 % of control and the Residual activity ([5]; 1.0E-06 M) was 108 % of control. The Residual activity ([5]; 1.0E-07 M) was 127 % of control, the Residual activity ([6]; 1.0E-06 M) was 95 % of control and the Residual activity ([6]; 1.0E-07 M) was 105 % of control. For the same compound, the Residual activity ([7]; 1.0E-06 M) was 31 % of control, the Residual activity ([7]; 1.0E-07 M) was 83 % of control and the Residual activity ([8]; ACV-RL1, 1.0E-06 M) was 106 % of control. The Residual activity ([8]; ACV-RL1, 1.0E-07 M) was 110 % of control.
